Read-outs that look alike come from different tables or passages of the source.
T1: CD95/PLCγ1 interaction (Homo sapiens, UniProt P19174)
T1 construct: The PLCγ1-SH3 domain (aa 790-851) (C); expressed in transfected cells; host or cells: HEK293T
T1 sequence (P19174 790-851): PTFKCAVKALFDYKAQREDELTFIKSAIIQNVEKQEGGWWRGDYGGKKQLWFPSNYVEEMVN

T2: PLCγ1-SH3 domain (aa 790-851) fused to F1 fragment of Renilla luciferase, P19174
T2 chain: T1 sequence (P19174 790-851)


What was measured:
[1] = target: T1, CD95/PLCγ1 interaction; assay: Renilla luciferase protein-fragment complementation assay (PCA), CD95-CID/PLCγ1-SH3; assay type: cell-based; settings: for effect on interaction of CD95 with PLCγ1: result in words
Experimental: FIG. 1. […] A. Schematic representation of the protein-fragment complementation assay used with CD95-CID or -DD fused to F2 and PLCγ1-SH3 or FADD-DD fused to F1 to identify inhibitors from the Prestwick library. The Renilla luciferase enzyme was divided into amino-terminal and carboxy-terminal fragments (yellow domains) and fused to the indicated domains. B. Compounds from the Prestwick library were tested against CD95/PLCγ1 or CD95/FADD PCA. […] Inhibition of CD95/FADD interaction is also assessed.
Light emission indicates refolding of the luciferase and reconstitution of enzyme activity through protein/protein interactions. […] Data represent means±SD of three independent experiments. […] Then, the indicated peptides fused with or without the cell-penetrating domain TAT were incubated at the indicated concentrations for 4 hrs and luminescence was assessed. Data represent means±SD of three independent experiments. […].
HEK293T cells were electroporated with 5 μg of DNA using BTM-830 electroporation generator (BTX Instrument Division, Harvard Apparatus) with 10 μg of DNA. Transfected cells were cultured for 24 hrs prior to protein complementation assay analyses as previously described (17). Briefly, transfected cells (10^6) were washed, resuspended in 100 μl PBS and deposited in OptiPlate-96 (PerkinElmer, Waltham, Mass., USA). Coelenterazine-h (5 μM, Sigma) was injected to each well and renilla luciferase activity was monitored for the first 10 seconds using Infinite200Pro (Tecan, Männedorf, Switzerland).
A peptide consisting of the cell-penetrating domain of TAT fused to CID (TAT-CID) binds the SH3 domain of PLCγ1 and thereby, prevents PLCγ1/CD95 interaction and the subsequent induction of the Ca^2+ response (16). […] Briefly, the Renilla luciferase enzyme was divided into two fragments (F1 and F2 fragments). […] Interaction of CD95 with PLCγ1 or FADD allows the reconstitution of RLuc and subsequent light emission (FIG. 1A). The chemical Prestwick library was screened against these PCAs (FIG. 1B). […] These molecules are designated CID inhibitors or CIDINH.

[2] = system: activated PBLs; assay: CD95-mediated cell migration / endothelial transmigration of activated PBLs (Boyden chamber); assay type: cell-based, human; settings: result in words
Experimental: FIG. 3. Drugs inhibit CD95-mediated Ca′ response and cell migration. A. Activated PBLs were loaded with FuraPE3-AM (1 μM) and pre-treated for 1 h with non-toxic concentrations of indicated compounds. T-cells were then stimulated with cl-CD95L (100 ng/mL; arrow). Ratio values (R) were normalized to pre-stimulated values (R0) to yield R/R0 values. Data represent means±the SD. B. Left panel: using Boyden chamber assay, cell migration of parental H9 cells and their counterpart lacking CD95 (CD95-KO) was assessed. Right panel: activated PBLs were pre-incubated in the presence or absence of the indicated drugs for 1 hour using non-toxic concentration and the CD95-mediated cell migration was assessed by Boyden chambers. C. Th17 cells were sorted from blood of healthy donors (peripheral blood mononuclear cell). FACS analyses showing the efficiency of Th17 (CCR6^+ CXCR3^−) cell sorting from healthy donors PBMCs. D. Th17 cells were pre-incubated in the presence or absence of the indicated drugs for 1 hour using non-toxic concentration and cell migration was assessed by Boyden chambers. After membrane hydration of Boyden chambers (Millipore, Molsheim, France) containing 8 μm pore membranes, 10^5 cells were added to the top chamber. The bottom chamber was filled with low serum (1%)-containing medium in the presence or absence of cl-CD95L (100 ng/ml). Cells were incubated for 24 h. To quantify invasion, cells were fixed with methanol and stained with Giemsa. Stained cells were then removed from the top-side of the membrane using a cotton-tipped swab and five representative pictures for each insert were taken of the invading cells from the reverse side. For each experiment, invading cells were lysed and absorbance at 560 nm was measured. Membranes (3 μm pore size) of a Boyden chamber were hydrated in sterile D-PBS (Millipore, Molsheim, France). Thereafter, activated T-lymphocytes (10^6) were added to the top chamber on a confluent monolayer of HUVEC in a low serum (1%)-containing medium. The bottom chamber was filled with low serum (1%)-containing medium in presence or absence of 100 ng/ml of cl-CD95L. In experiments using human sera, 500 μl of serum from either healthy donors or SLE patients was added to the lower chamber. Cells were cultured for 24 h at 37° C. in a 5% CO2, humidified incubator. Transmigrated cells were counted in the lower reservoir by flow cytometry using a standard of 2.5×10^4 fluorescent beads (Flow-count, Beckman Coulter).

[3] = system: CD95-mediated Ca2+ signaling pathway in Th17 cells; assay: CD95-mediated Ca2+ response in Th17 cells; assay type: cell-based, human; settings: drugs 1 μM for 1 h, s-CD95L 100 ng/mL, Fluo2 LR-AM
Experimental: A. Activated PBLs were loaded with FuraPE3-AM (1 μM) and pre-treated for 1 h with non-toxic concentrations of indicated compounds. T-cells were then stimulated with thapsigargin (1 μM; arrow). Ratio values (R) were normalized to pre-stimulated values (R0) to yield R/R0 values. Data represent means±the SD. B. Th17 cells were sorted from healthy donors and loaded with FuraPE3-AM (1 μM). Th17 cells were pre-treated for 1 h with non-toxic concentrations of ritonavir or diflunisal (1 μM). T-cells were then stimulated with cl-CD95L (100 ng/mL; arrow). Ratio values (R) were normalized to pre-stimulated values (R0) to yield R/R0 values. Data represent means±the SD.
Human PBLs were sorted using flow cytometry cell sorting to isolate Th17 (A) according to their phenotype (CD3+CD4+CXCR5−CCR6+CXCR3−CD45RA−) and Tfh (B) (CD4+CXCR5+ICOS+PD−1+CD45RA−). Cells were pre-incubated with Indicated drugs (1 μM) for 1 h and then stimulated with 100 ng/mL of s-CD95L. [Ca2+]CYT was assessed in Fluo2 LR-AM (3 μM)-loaded cells. Data represent means±the SD of 3 independent experiments.
Peripheral blood mononuclear cells (PBMC) were isolated from buffy-coat by density gradient using lymphocyte separation medium (Eurobio, Les Ulis, France). PBMCs were then subjected to selection using a cocktail of antibody-coated magnetic beads: CCR6^+ CXCR3^−CD4^+ cells (Th17 cells) were sorted with Human Th17 Enrichment kit (STEMCELL Technologies, Grenoble, France). Cell sorting efficiency was evaluated by FACS.
T-cells were loaded with Fura-PE3-AM (1 μM) at room temperature for 30 min in Hank's Balanced Salt Solution (HBSS). After washing, the cells were incubated for 15 min in the absence of Fura-PE3-AM to complete de-esterification of the dye. Cells were placed in a temperature controlled chamber (37° C.) of an inverted epifluorescence microscope (Olympus IX70) equipped with an x40 UApo/340-1.15 W water-immersion objective (Olympus), and fluorescence micrograph images were captured at 510 nm and 12-bit resolution by a fast-scan camera (CoolSNAP fx Monochrome, Photometrics). To minimize UV light exposure, a 4×4 binning function was used. Fura-PE3 was alternately excited at 340 and 380 nm, and the ratios of the resulting images (emission filter at 520 nm) were produced at constant intervals (10 seconds). The Fura-PE3 ratio (Fratio 340/380) images were analyzed offline with Universal Imaging software, including Metafluor and Metamorph. Fratio reflects the intracellular Ca^2+ concentration changes. Each experiment was repeated at least 3 times, and the average of more than 20 single-cell traces per experiment was analyzed.

[4] = system: CD95-mediated Ca2+ signaling pathway in Tfh cells; assay: CD95-mediated Ca2+ response in Tfh cells; assay type: cell-based, human; settings: drugs 1 μM for 1 h, s-CD95L 100 ng/mL, Fluo2 LR-AM
[5] = target: T2, PLCγ1-SH3 domain (aa 790-851) fused to …; assay: Renilla luciferase protein-fragment complementation assay in non-permeabilized HEK cells (CID-CD95-F2 / PLCγ1-SH3-F1), peptide 4 h; displaces CID-CD95
[6] = target: T2, PLCγ1-SH3 domain (aa 790-851) fused to …

Row | Molecule | effect on interaction of CD95 with PLCγ1 [1] | effect on endothelial transmigration of PBLs [2] | effect on CD95-mediated Ca2+ signaling pathway in Th17 cells [3] | effect on CD95-mediated Ca2+ signaling pathway in Tfh cells [4] | further results
1 | COc1ccc(-c2cc(=S)ss2)cc1 [anethole, 5-(4-methoxyphenyl)dithiole-3-thione] | efficiently prevented | inhibited |  |  | 
2 | COC(=O)N[C@H](C(=O)N[C@@H](Cc1ccccc1)[C@@H](O)CN(Cc1ccc(-c2ccccn2)cc1)NC(=O)[C@@H](NC(=O)OC)C(C)(C)C)C(C)(C)C [atazanavir] |  |  | efficiently abrogated | efficiently abrogated | 
3 | CC(C)CN(C[C@@H](O)[C@H](Cc1ccccc1)NC(=O)O[C@H]1CO[C@H]2OCC[C@H]21)S(=O)(=O)c1ccc(N)cc1 [darunavir] |  |  | efficiently abrogated | efficiently abrogated | 
4 | COc1cccc2c1C(=O)c1c(O)c3c(c(O)c1C2=O)C[C@@](O)(C(C)=O)C[C@@H]3O[C@H]1C[C@H](N)[C@H](O)[C@H](C)O1 [daunorubicin, (7S,9S)-9-acetyl-7-[(2R,4S,5S,6S)-4-amino-5-hydroxy-6-methyloxan-2-yl]oxy-6,9,11-trihydroxy-4-methoxy-8,10-dihydro-7H-tetracene-5,12-dione] | efficiently prevented | inhibited |  |  | 
5 | Cc1cccc(C)c1OCC(=O)N[C@@H](Cc1ccccc1)[C@@H](O)C[C@H](Cc1ccccc1)NC(=O)[C@H](C(C)C)N1CCCNC1=O [lopinavir] |  |  | efficiently abrogated | efficiently abrogated | 
6 | CN(CCOc1ccc(CC2SC(=O)NC2=O)cc1)c1ccccn1 (stereo not shown) [rosiglitazone, 5-[[4-[2-[methyl(pyridin-2-yl)amino]ethoxy]phenyl]methyl]-1,3-thiazolidine-2,4-dione] | efficiently prevented | inhibited |  |  | 
7 | TAT-minCID: heptapeptide minCID (TCRKHRK, SEQ ID NO:1) fused with the cell-penetrating domain TAT (not fully specified; chains of the parent or of the whole protein) |  |  |  |  | IC50 ([1]; PCA in HEK cells, peptides incubated for 4 hours, read-out: IC50, disruption of CD95/PLCγ1 interaction by peptides): 11.5 µM
8 | TCRKHRK (modifications not checked) [minCID (minimal CID, amino acids 182 to 188 of CD95, TCRKHRK)] |  |  |  |  | IC50 [5]: 35.5 µM
9 | TCRKHRK (modifications not checked) [TAT-minCID (cell-penetrating domain TAT fused to minCID, TCRKHRK)] |  |  |  |  | IC50 [6]: 11.5 µM
10 | KRKEVQKTCRKHRKENQGSHESPTLNPETVAINLSD (modifications not checked) |  |  |  |  | IC50 [6]: 10.8 µM

Source: patent US20190350907A1, “METHODS AND PHARMACEUTICAL COMPOSITIONS FOR REDUCING CD95- MEDIATED CELL MOTILITY” (INSERM (INSTITUT NATIONAL DE LA SANTÉ ET DE LA RECHERCHE …, priority 2017, published 2019)
